This note sets out measurements from US10899759B2, “Positive allosteric modulators of the muscarinic acetylcholine receptor M1” (Vanderbilt University, priority 2016, dated 2021).

The target in this test is T1, human mAChR M1 (Homo sapiens, UniProt P11229).
T1 construct: host or cells: CHO-K1
T1 sequence (P11229 1-460): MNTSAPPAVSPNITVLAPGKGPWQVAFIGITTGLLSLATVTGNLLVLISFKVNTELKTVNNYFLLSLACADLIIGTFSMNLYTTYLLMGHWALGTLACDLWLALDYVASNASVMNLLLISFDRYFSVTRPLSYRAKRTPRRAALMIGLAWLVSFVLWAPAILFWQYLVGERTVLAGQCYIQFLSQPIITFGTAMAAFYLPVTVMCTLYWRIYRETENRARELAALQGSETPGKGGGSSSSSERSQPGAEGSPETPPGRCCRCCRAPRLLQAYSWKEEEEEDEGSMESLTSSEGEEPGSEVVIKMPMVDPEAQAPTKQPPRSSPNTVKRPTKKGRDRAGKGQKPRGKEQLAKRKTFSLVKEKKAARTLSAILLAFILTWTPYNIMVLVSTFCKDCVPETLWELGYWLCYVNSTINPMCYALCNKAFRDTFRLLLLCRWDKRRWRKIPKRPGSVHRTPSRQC
The test can be described thus: mAChR M1 cell-based functional assay (calcium mobilization, Fluo-4, FDSS). The note with it: CHO-K1 cells stably expressing hM1; for Emax: EC20 acetylcholine response, read-out: Human M1 Emax; for EC50: positive allosteric modulator activity as increase in the EC20 acetylcholine response. The essentials: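 CHO-K1 cells stably expressing muscarinic receptor, loaded with Fluo-4; 11-point 1:3 compound series added and calcium flux read over 300 s at 1 Hz. Agonism from direct calcium rise, PAM activity as potentiation of EC20 acetylcholine, antagonism as decrease of EC80 acetylcholine; four-parameter logistic fits.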
Background: Calcium assays in cells follow changes in intracellular calcium, usually with a dye or a luminescent sensor.

With `O=C(NC1CC2(COC2)C1)c1cc(Cc2ccc(-n3cccn3)cc2)c2ccsc2n1` [Compound 80, N-(2-oxaspiro[3.3]heptan-6-yl)-4-[(4-pyrazol-1-ylphenyl)methyl]thieno[2,3-b]pyridine-6-carboxamide], the Emax – broadly, the greatest response seen or fitted, relative to the assay's reference – worked out at 72.3% and the EC50 (usually the midpoint of the concentration-response curve) was determined as 430 nM.
Taken in the same sequence, the figures for `O=C(NC1COC1)c1cc(Cc2ccc(-n3cccn3)cc2)c2ccsc2n1` [Compound 81, N-(oxetan-3-yl)-4-[(4-pyrazol-1-ylphenyl)methyl]thieno[2,3-b]pyridine-6-carboxamide] were 69.4% and 190 nM.
On the same counts, the results for `O=C(NC1CC(F)C1)c1cc(Cc2ccc(-n3cccn3)cc2)c2ccsc2n1` (stereo not drawn) [Compound 82] are 69.6% and 2090 nM.
On the same counts, the results for `O=C(NC1CC(F)(F)C1)c1cc(Cc2ccc(-n3cccn3)cc2)c2ccsc2n1` [Compound 83, N-(3,3-difluorocyclobutyl)-4-[(4-pyrazol-1-ylphenyl)methyl]thieno[2,3-b]pyridine-6-carboxamide] are 74.8% and 1770 nM.
Take `O=C(NCC1CCN1)c1cc(Cc2ccc(-n3cccn3)cc2)c2ccsc2n1` (stereo not drawn) [Compound 84, N-(azetidin-2-ylmethyl)-4-[(4-pyrazol-1-ylphenyl)methyl]thieno[2,3-b]pyridine-6-carboxamide]: the Emax came to 42.7% and the EC50 came to 1080 nM.
On the same counts, the results for `COCCNC(=O)c1cc(Cc2ccc(-n3cccn3)cc2)c2ccsc2n1` [Compound 85, N-(2-methoxyethyl)-4-[(4-pyrazol-1-ylphenyl)methyl]thieno[2,3-b]pyridine-6-carboxamide] are 58.6% and 70 nM.
For the compound `COCC(C)NC(=O)c1cc(Cc2ccc(-n3cccn3)cc2)c2ccsc2n1` (stereo not drawn) [Compound 86, N-(2-methoxy-1-methyl-ethyl)-4-[(4-pyrazol-1-ylphenyl)methyl]thieno[2,3-b]pyridine-6-carboxamide], the Emax amounted to 62% and the EC50 is 690 nM.
Consider `Cn1ccc(-c2ccc(Cc3cc(C(=O)NC4CCOCC4)nc4sccc34)cc2)n1` [Compound 87, 4-[[4-(1-methylpyrazol-3-yl)phenyl]methyl]-N-tetrahydropyran-4-yl-thieno[2,3-b]pyridine-6-carboxamide], for which the Emax is 60.4% and the EC50 came to 2130 nM.
On the same counts, the results for `Cn1ccc(-c2ccc(Cc3cc(C(=O)N[C@H]4CCCC[C@@H]4O)nc4sccc34)cc2)n1` [Compound 88, N-[(1S,2S)-2-hydroxycyclohexyl]-4-[[4-(1-methylpyrazol-3-yl)phenyl]methyl]thieno[2,3-b]pyridine-6-carboxamide] are 62.4% and 50 nM.
On the same counts, the results for `Cn1ccc(-c2ccc(Cc3cc(C(=O)N[C@H]4CCOC[C@@H]4O)nc4sccc34)cc2)n1` [Compound 89, N-[(3R,4S)-3-hydroxytetrahydropyran-4-yl]-4-[[4-(1-methylpyrazol-3-yl)phenyl]methyl]thieno[2,3-b]pyridine-6-carboxamide] are 41.2% and 40 nM.
Taken in the same sequence, the figures for `Cn1ccc(-c2ccc(Cc3cc(C(=O)NC4CCOC(C)(C)C4)nc4sccc34)cc2)n1` (stereo not drawn) [Compound 90, N-(2,2-dimethyltetrahydropyran-4-yl)-4-[[4-(1-methylpyrazol-3-yl)phenyl]methyl]thieno[2,3-b]pyridine-6-carboxamide] were 36.4% and 10 nM.
As for `CC1CC(NC(=O)c2cc(Cc3ccc(-c4ccn(C)n4)cc3)c3ccsc3n2)CC(C)O1` (stereo not drawn) [Compound 91, N-(2,6-dimethyltetrahydropyran-4-yl)-4-[[4-(1-methylpyrazol-3-yl)phenyl]methyl]thieno[2,3-b]pyridine-6-carboxamide], the maximum response (Emax) worked out at 56.2% and the EC50 stood at 520 nM.
Turning to `Cn1ccc(-c2ccc(Cc3cc(C(=O)NC4CCOCC4(C)C)nc4sccc34)cc2)n1` (stereo not drawn) [Compound 92, N-(3,3-dimethyltetrahydropyran-4-yl)-4-[[4-(1-methylpyrazol-3-yl)phenyl]methyl]thieno[2,3-b]pyridine-6-carboxamide], the Emax worked out at 61.6% and the EC50 stood at 1180 nM.
Regarding `CC1COCCC1NC(=O)c1cc(Cc2ccc(-c3ccn(C)n3)cc2)c2ccsc2n1` (stereo not drawn) [Compound 93, 4-[[4-(1-methylpyrazol-3-yl)phenyl]methyl]-N-(3-methyltetrahydropyran-4-yl)thieno[2,3-b]pyridine-6-carboxamide], the Emax turned out to be 59.5% and the EC50 amounted to 740 nM.
On the same counts, the results for `Cn1ccc(-c2ccc(Cc3cc(C(=O)NCC4CCOCC4)nc4sccc34)cc2)n1` [Compound 94, 4-[[4-(1-methylpyrazol-3-yl)phenyl]methyl]-N-(tetrahydropyran-4-ylmethyl)thieno[2,3-b]pyridine-6-carboxamide] are 61.4% and 630 nM.
Turning to `Cn1ccc(-c2ccc(Cc3cc(C(=O)NCC4CCOC4)nc4sccc34)cc2)n1` (stereo not drawn) [Compound 95, 4-[[4-(1-methylpyrazol-3-yl)phenyl]methyl]-N-(tetrahydrofuran-3-ylmethyl)thieno[2,3-b]pyridine-6-carboxamide], the Emax was 65.5% and the EC50 amounted to 370 nM.
In the case of `Cn1ccc(-c2ccc(Cc3cc(C(=O)NC4CC5(COC5)C4)nc4sccc34)cc2)n1` [Compound 96, 4-[[4-(1-methylpyrazol-3-yl)phenyl]methyl]-N-(2-oxaspiro[3.3]heptan-6-yl)thieno[2,3-b]pyridine-6-carboxamide], the Emax was found to be 69.9% and the EC50 came out at 280 nM.
On the same counts, the results for `Cn1ccc(-c2ccc(Cc3cc(C(=O)NC4CC(F)C4)nc4sccc34)cc2)n1` (stereo not drawn) [Compound 97, N-(3-fluorocyclobutyl)-4-[[4-(1-methylpyrazol-3-yl)phenyl]methyl]thieno[2,3-b]pyridine-6-carboxamide] are 65.9% and 140 nM.
On the same counts, the results for `Cn1ccc(-c2ccc(Cc3cc(C(=O)NC4CC(F)(F)C4)nc4sccc34)cc2)n1` [Compound 98, N-(3,3-difluorocyclobutyl)-4-[[4-(1-methylpyrazol-3-yl)phenyl]methyl]thieno[2,3-b]pyridine-6-carboxamide] are 68.7% and 1650 nM.
For the compound `COCCNC(=O)c1cc(Cc2ccc(-c3ccn(C)n3)cc2)c2ccsc2n1` [Compound 99, N-(2-methoxyethyl)-4-[[4-(1-methylpyrazol-3-yl)phenyl]methyl]thieno[2,3-b]pyridine-6-carboxamide], the Emax turned out to be 62.8% and the EC50 turned out to be 3330 nM.
As for `COCC(C)NC(=O)c1cc(Cc2ccc(-c3ccn(C)n3)cc2)c2ccsc2n1` (stereo not drawn) [Compound 100, N-(2-methoxy-1-methyl-ethyl)-4-[[4-(1-methylpyrazol-3-yl)phenyl]methyl]thieno[2,3-b]pyridine-6-carboxamide], the Emax was determined as 63.5% and the EC50 was 480 nM.
As to `Cn1ccc(-c2ccc(Cc3cc(C(=O)N[C@H]4CCCC[C@@H]4O)nc4sccc34)cn2)n1` [Compound 101, N-[(1S,2S)-2-hydroxycyclohexyl]-4-[[6-(1-methylpyrazol-3-yl)-3-pyridyl]methyl]thieno[2,3-b]pyridine-6-carboxamide], the Emax is 67.2% and the EC50 was 2660 nM.
Taken in the same sequence, the figures for `Cn1ccc(-c2ccc(Cc3cc(C(=O)NC4CCOCC4)nc4sccc34)cn2)n1` [Compound 102, 4-[[6-(1-methylpyrazol-3-yl)-3-pyridyl]methyl]-N-tetrahydropyran-4-yl-thieno[2,3-b]pyridine-6-carboxamide] were 37.9% and 20 nM.
For `Cn1ccc(-c2ccc(Cc3cc(C(=O)NC4CCOC(C)(C)C4)nc4sccc34)cn2)n1` (stereo not drawn) [Compound 103, N-(2,2-dimethyltetrahydropyran-4-yl)-4-[[6-(1-methylpyrazol-3-yl)-3-pyridyl]methyl]thieno[2,3-b]pyridine-6-carboxamide], the Emax stood at 60.5% and the EC50 is 70 nM.
On the same counts, the results for `CC1CC(NC(=O)c2cc(Cc3ccc(-c4ccn(C)n4)nc3)c3ccsc3n2)CC(C)O1` (stereo not drawn) [Compound 104, N-(2,6-dimethyltetrahydropyran-4-yl)-4-[[6-(1-methylpyrazol-3-yl)-3-pyridyl]methyl]thieno[2,3-b]pyridine-6-carboxamide] are 59.7% and 90 nM.
With `Cn1ccc(-c2ccc(Cc3cc(C(=O)NC4CCOCC4(C)C)nc4sccc34)cn2)n1` (stereo not drawn) [Compound 105, N-(3,3-dimethyltetrahydropyran-4-yl)-4-[[6-(1-methylpyrazol-3-yl)-3-pyridyl]methyl]thieno[2,3-b]pyridine-6-carboxamide], the Emax amounted to 63.5% and the EC50 was 370 nM.
On the same counts, the results for `CC1COCCC1NC(=O)c1cc(Cc2ccc(-c3ccn(C)n3)nc2)c2ccsc2n1` (stereo not drawn) [Compound 106, 4-[[6-(1-methylpyrazol-3-yl)-3-pyridyl]methyl]-N-(3-methyltetrahydropyran-4-yl)thieno[2,3-b]pyridine-6-carboxamide] are 58.4% and 110 nM.
